Experimental data as given in ChEMBL document CHEMBL1139052, “Synthesis of a novel inhibitor against MRSA and VRE: preparation from zerumbone ring opening material showing histidine-kinase inhibition” (Bioorg Med Chem Lett, 2007).
≈ marks a conversion by molar mass, not a printed value. Where “and” joins values, the source holds several entries; their conditions need not be identical. Identical values can stand only once.

Legend:
[1] = biological target: T1, Sensor histidine kinase WalK (Bacillus subtilis (strain 168), UniProt Q45614); test: Inhibition of Bacillus subtilis histidine kinase YycG
T1 sequence (Q45614 whole entry): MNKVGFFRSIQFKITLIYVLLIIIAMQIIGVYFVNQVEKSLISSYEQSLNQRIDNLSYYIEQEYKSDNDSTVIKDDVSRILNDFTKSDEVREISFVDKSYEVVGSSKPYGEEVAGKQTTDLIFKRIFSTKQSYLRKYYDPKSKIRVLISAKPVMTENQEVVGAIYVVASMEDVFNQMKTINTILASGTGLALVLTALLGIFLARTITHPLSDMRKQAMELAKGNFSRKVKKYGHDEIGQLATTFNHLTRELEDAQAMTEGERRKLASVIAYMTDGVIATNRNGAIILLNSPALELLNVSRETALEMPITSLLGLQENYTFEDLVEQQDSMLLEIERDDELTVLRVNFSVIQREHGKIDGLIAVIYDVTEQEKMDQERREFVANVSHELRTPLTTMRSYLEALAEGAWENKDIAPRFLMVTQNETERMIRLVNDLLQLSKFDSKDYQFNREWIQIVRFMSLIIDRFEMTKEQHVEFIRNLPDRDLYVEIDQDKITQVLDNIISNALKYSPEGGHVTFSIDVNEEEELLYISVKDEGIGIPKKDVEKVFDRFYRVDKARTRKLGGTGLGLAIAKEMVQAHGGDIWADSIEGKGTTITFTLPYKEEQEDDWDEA

Enterococcus faecalis = test: Antibacterial activity against vancomycin-resistant Enterococcus faecalis NCTC-12201 after 18 hrs by broth microdilution method; type: functional
Staphylococcus aureus = test: Antibacterial activity against methicillin-resistant staphylococcus aureus 870307 after 18 hrs by broth microdilution method; type: functional

| Structure (SMILES) | IC50 [1] | MIC (Enterococcus faecalis) [µg/mL] | MIC (Staphylococcus aureus) [µg/mL] |
| --- | --- | --- | --- |
| CCCCCCCCN(CCCCCCCC)C(=O)/C=C/C(C)(C)C/C=C(\C)CC/C=C(\C)Br | > 928 µM | > 100 | > 100 |
| C/C(Br)=C\CC/C(C)=C/CC(C)(C)/C=C/C(=O)N1CCCCC1 | > 1310 µM | > 100 | > 100 |
| COC(=O)[C@H](C)NC(=O)/C=C/C(C)(C)C/C=C(\C)CC/C=C(\C)Br | > 1250 µM | > 100 | > 100 |
| C/C(Br)=C\CC/C(C)=C/CC(C)(C)/C=C/C(=O)O | 63.4 µM and 63.5 µM | > 100 | > 100 |
| C/C(Br)=C\CC/C(C)=C/CC(C)(C)/C=C/CO | > 1660 µM | > 100 | > 100 |
| COC(=O)/C=C/C(C)(C)C/C=C(\C)CC/C=C(\C)Br | > 1520 µM | > 100 | > 100 |
| CCCCCCCCOC(=O)/C=C/C(C)(C)C/C=C(\C)CC/C=C(\C)Br | > 1170 µM | > 100 | > 100 |
| C/C(Br)=C\CC/C(C)=C/CC(C)(C)/C=C/C(=O)N[C@@H](Cc1ccc(O)cc1)C(=O)O | < 523 µM | > 100 | > 100 |
| C/C(Br)=C\CC/C(C)=C/CC(C)(C)/C=C/C(=O)N[C@@H](CC(=O)O)C(=O)O | < 581 µM | > 100 | > 100 |
| C/C(Br)=C\CC/C(C)=C/CC(C)(C)/C=C/C(=O)N[C@@H](CCC(=O)O)C(=O)O | < 563 µM | > 100 | > 100 |
| COC(=O)[C@H](Cc1ccccc1)NC(=O)/C=C/C(C)(C)C/C=C(\C)CC/C=C(\C)Br | > 1050 µM | > 100 | > 100 |
| C/C(Br)=C\CC/C(C)=C/CC(C)(C)/C=C/C(=O)N[C@@H](CC(C)C)C(=O)O | > 1170 µM | > 100 | > 100 |
| COC(=O)[C@@H]1CCCN1C(=O)/C=C/C(C)(C)C/C=C(\C)CC/C=C(\C)Br | < 586 µM | > 100 | > 100 |
| CC[C@H](C)[C@H](NC(=O)/C=C/C(C)(C)C/C=C(\C)CC/C=C(\C)Br)C(=O)O | > 1170 µM | > 100 | > 100 |
| C/C(Br)=C\CC/C(C)=C/CC(C)(C)/C=C/C(=O)N1CCC[C@H]1C(=O)O | < 606 µM | > 100 | > 100 |
| C/C(Br)=C\CC/C(C)=C/CC(C)(C)/C=C/C(=O)N[C@@H](C)C(=O)O | < 647 µM | > 100 | > 100 |
| COC(=O)[C@H](CC(C)C)NC(=O)/C=C/C(C)(C)C/C=C(\C)CC/C=C(\C)Br | > 1130 µM | > 100 | > 100 |
| CC[C@H](C)[C@H](NC(=O)/C=C/C(C)(C)C/C=C(\C)CC/C=C(\C)Br)C(=O)OC | > 1130 µM | > 100 | > 100 |
| C/C(Br)=C\CC/C(C)=C/CC(C)(C)/C=C/C(=O)NCC(=O)O | < 671 µM | > 100 | > 100 |
| COC(=O)[C@H](CC(N)=O)NC(=O)/C=C/C(C)(C)C/C=C(\C)CC/C=C(\C)Br | 1130 µM | > 100 | > 100 |
| COC(=O)[C@H](CCC(N)=O)NC(=O)/C=C/C(C)(C)C/C=C(\C)CC/C=C(\C)Br | 1090 µM | > 100 | > 100 |

| Structure (SMILES) | IC50 [1] | MIC (Enterococcus faecalis) [µg/mL] | MIC (Staphylococcus aureus) [µg/mL] |
| --- | --- | --- | --- |
| COC(=O)[C@H](CC(=O)O)NC(=O)/C=C/C(C)(C)C/C=C(\C)CC/C=C(\C)Br | > 1130 µM | > 100 | > 100 |
| COC(=O)[C@H](CCC(=O)O)NC(=O)/C=C/C(C)(C)C/C=C(\C)CC/C=C(\C)Br | > 1090 µM | > 100 | > 100 |
| CSCC[C@H](NC(=O)/C=C/C(C)(C)C/C=C(\C)CC/C=C(\C)Br)C(=O)O | < 560 µM | > 100 | > 100 |
| C/C(Br)=C\CC/C(C)=C/CC(C)(C)/C=C/C(=O)N[C@@H](CO)C(=O)O | < 621 µM | > 100 | > 100 |
| C/C(Br)=C\CC/C(C)=C/CC(C)(C)/C=C/C(=O)N[C@H](C(=O)O)[C@@H](C)O | > 1200 µM | > 100 | > 100 |
| COC(=O)CNC(=O)/C=C/C(C)(C)C/C=C(\C)CC/C=C(\C)Br | > 1290 µM | > 100 | > 100 |
| C/C(Br)=C\CC/C(C)=C/CC(C)(C)/C=C/C(=O)N[C@@H](Cc1c[nH]c2ccccc12)C(=O)O | 43.9 µM | 50 (≈ 99.7 µM) | 100 (≈ 199 µM) |
| C/C(Br)=C\CC/C(C)=C/CC(C)(C)/C=C/C(=O)N[C@@H](Cc1cnc[nH]1)C(=O)O | < 553 µM | > 100 | > 100 |
| CCCCN(CCCC)C(=O)/C=C/C(C)(C)C/C=C(\C)CC/C=C(\C)Br | > 1170 µM | > 100 | > 100 |
| C/C(Br)=C\CC/C(C)=C/CC(C)(C)/C=C/C(=O)N[C@@H](Cc1ccccc1)C(=O)O | < 541 µM | > 100 | > 100 |
| C/C(Br)=C\CC/C(C)=C/CC(C)(C)/C=C/C(=O)N[C@@H](CCC(N)=O)C(=O)O | < 564 µM | > 100 | > 100 |
| COC(=O)[C@H](CCSC)NC(=O)/C=C/C(C)(C)C/C=C(\C)CC/C=C(\C)Br | > 1090 µM | > 100 | > 100 |
| COC(=O)[C@@H](NC(=O)/C=C/C(C)(C)C/C=C(\C)CC/C=C(\C)Br)C(C)C | > 1170 µM | > 100 | > 100 |
| COC(=O)[C@@H](NC(=O)/C=C/C(C)(C)C/C=C(\C)CC/C=C(\C)Br)[C@@H](C)O | > 1160 µM | > 100 | > 100 |
| C/C(Br)=C\CC/C(C)=C/CC(C)(C)/C=C/C(=O)N[C@H](C(=O)O)C(C)C | < 603 µM | > 100 | > 100 |
| COC(=O)[C@H](Cc1ccc(O)cc1)NC(=O)/C=C/C(C)(C)C/C=C(\C)CC/C=C(\C)Br | > 1020 µM | > 100 | > 100 |
| COC(=O)[C@H](Cc1cnc[nH]1)NC(=O)/C=C/C(C)(C)C/C=C(\C)CC/C=C(\C)Br | > 1070 µM | > 100 | > 100 |
| COC(=O)[C@H](Cc1c[nH]c2ccccc12)NC(=O)/C=C/C(C)(C)C/C=C(\C)CC/C=C(\C)Br | > 970 µM | > 100 | > 100 |
| C/C(Br)=C\CC/C(C)=C/CC(C)(C)/C=C/C(=O)N[C@@H](CC(N)=O)C(=O)O | < 582 µM | > 100 | > 100 |
| COC(=O)[C@H](CO)NC(=O)/C=C/C(C)(C)C/C=C(\C)CC/C=C(\C)Br | < 600 µM | > 100 | > 100 |
| C/C1=C\CC(C)(C)/C=C/C(=O)/C(C)=C/CC1 [ZERUMBONE] | > 2290 µM | > 100 | > 100 |
